Reference: paper PMC2834170 (Bioorganic & medicinal chemistry letters, 2010)

What was measured:
[1] = system: μ, δ and κ opioid receptors; assay: Selectivity across μ, δ and κ opioid binding to CHO membranes; details: for Selectivity μ/δ/κ: ratio of Ki values, CHO membranes
[2] = target: μ opioid receptor (Homo sapiens, UniProt P35372); assay: Inhibition of μ opioid binding to CHO membranes
[3] = target: κ opioid receptor (Homo sapiens, UniProt P41145); assay: Inhibition of κ opioid binding to CHO membranes
Sequence of κ opioid receptor (P41145 whole entry): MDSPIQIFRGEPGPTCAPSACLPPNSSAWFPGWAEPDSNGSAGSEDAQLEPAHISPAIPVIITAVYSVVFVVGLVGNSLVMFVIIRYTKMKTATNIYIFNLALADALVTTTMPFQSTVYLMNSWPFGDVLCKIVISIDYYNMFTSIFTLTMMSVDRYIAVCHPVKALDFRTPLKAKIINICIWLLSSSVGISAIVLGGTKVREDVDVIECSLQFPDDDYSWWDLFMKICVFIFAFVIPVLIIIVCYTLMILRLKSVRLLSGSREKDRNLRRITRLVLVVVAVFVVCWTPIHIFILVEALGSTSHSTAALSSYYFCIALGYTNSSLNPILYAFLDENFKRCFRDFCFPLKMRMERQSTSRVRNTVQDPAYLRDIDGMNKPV

[4] = relative to ether based compound 3

Sequence of μ opioid receptor (P35372 whole entry, species assumed): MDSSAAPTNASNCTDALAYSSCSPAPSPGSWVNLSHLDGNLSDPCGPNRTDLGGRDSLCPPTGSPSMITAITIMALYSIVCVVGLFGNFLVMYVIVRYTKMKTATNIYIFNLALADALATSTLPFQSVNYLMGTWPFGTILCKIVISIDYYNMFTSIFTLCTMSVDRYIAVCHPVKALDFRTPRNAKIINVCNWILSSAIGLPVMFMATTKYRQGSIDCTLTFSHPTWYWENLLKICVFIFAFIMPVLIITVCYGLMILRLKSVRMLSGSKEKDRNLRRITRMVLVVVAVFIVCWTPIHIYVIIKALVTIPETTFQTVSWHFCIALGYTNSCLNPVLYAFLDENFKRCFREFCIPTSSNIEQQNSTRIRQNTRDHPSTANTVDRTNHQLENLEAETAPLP

OC(CCCCC(O)COc1ccc2c(c1)[C@@]13CCCC[C@H]1[C@@H](C2)N(CC1CCC1)CC3)COc1ccc2c(c1)[C@@]13CCCC[C@H]1[C@@H](C2)N(CC1CCC1)CC3 (some centres unmarked) [Compound 10]
Selectivity μ/δ/κ [1]: 1/23/1

OC(COc1ccc2c(c1)[C@@]13CCCC[C@H]1[C@@H](C2)N(CC1CCC1)CC3)CC(O)COc1ccc2c(c1)[C@@]13CCCC[C@H]1[C@@H](C2)N(CC1CCC1)CC3 (some centres unmarked) [Compound 7]
Selectivity μ/δ/κ [1]: 7/194/1

CCCCCCCCCCOc1ccc2c(c1)[C@@]13CCCC[C@H]1[C@@H](C2)N(CC1CCC1)CC3 [Compound 17]
weaker binding affinity at the μ opioid receptor ([2]; relative to 15): 10 fold

CCCCCCCCC(O)COc1ccc2c(c1)[C@@]13CCCC[C@H]1[C@@H](C2)N(CC1CCC1)CC3 (some centres unmarked) [Compound 15]
weaker binding affinity at the μ and κ receptors ([1]; relative to bivalent ligand 12): 3–6 fold

OC(CCCCCCC(O)COc1ccc2c(c1)[C@@]13CCCC[C@H]1[C@@H](C2)N(CC1CCC1)CC3)COc1ccc2c(c1)[C@@]13CCCC[C@H]1[C@@H](C2)N(CC1CCC1)CC3 (stereo partly drawn) [Compound 12, Bis-((−)-N-cyclobutylmethylmorphinan-3-oxy) decane-2,9-diol]
increase in binding affinity at the μ opioid receptor [2, 4]: 27 fold
increase in binding affinity at the κ opioid receptor [3, 4]: 86 fold

CCCCCCCCCC(=O)Oc1ccc2c(c1)[C@@]13CCCC[C@H]1[C@@H](C2)N(CC1CCC1)CC3 [Compound 16]
Ki (nM) ± SE μ ([2]; CHO membranes): sub-nanomolar
Ki (nM) ± SE κ ([3]; CHO membranes): sub-nanomolar
Selectivity μ/δ/κ [1]: 1/100/1

OC(COc1ccccc1)COc1ccc2c(c1)[C@@]13CCCC[C@H]1[C@@H](C2)N(CC1CCC1)CC3 (some centres unmarked) [Compound 18]
weaker binding affinity at the μ opioid receptor ([2]; relative to bivalent hydroxy ether 6): 7.5 fold
Selectivity μ/δ/κ [1]: 1/13/3

c1cc2c(cc1OCC1CO1)[C@@]13CCCC[C@H]1[C@@H](C2)N(CC1CCC1)CC3 (some centres unmarked) [Compound 14]
Selectivity μ/δ/κ [1]: 1/27/5

OC(COc1ccc2c(c1)[C@@]13CCCC[C@H]1[C@@H](C2)N(CC1CCC1)CC3)COc1ccc2c(c1)[C@@]13CCCC[C@H]1[C@@H](C2)N(CC1CCC1)CC3 [Compound 6]
greater binding affinity at the μ receptor ([2]; relative to des-hydroxy analog 5): 7.5 fold
Selectivity μ/δ/κ [1]: 1/39/1
